# Source: patent US20080122428A1, “Optimized Determination of Voltage Changes Using a Voltage-Sensitive Dye” (Max-Planck-Gesellschaft zur Forderungder Wissenschaften e. …, priority 2003, published 2008)
# Several values for one entry are separate records, joined by “and”; a condition that tells them apart may be missing. Equal values may be shown once.
# How the values were obtained:
# [1] = system: Retzius cells (leech neurons); conditions: cited from earlier work; for shift of the excitation spectrum per membrane voltage: Kuhn and Fromherz, 2003
# HEK293 cells [2] = test: Voltage sensitivity in HEK293 cells by extracellular electric field, laser line scans with one- or two-photon excitation; format: cell-based
# Description: HEK293 cells (DSMZ GmbH, Braunschweig, Germany) were cultured using standard methods on glass coverslips (diameter 24 mm, Assistent, Glaswarenfabrik Karl Hecht KG, Sondheim, Germany). The coverslips were coated with fibronectin (No. 68885, Boehringer-Mannheim, Germany) in PBS (140 mM NaCl, 2.7 mM KCl, 1.5 mM KH2PO4, 6.5 mM Na2HPO4×2H2O) by incubation for 45 min in a 10 μg/ml fibronectin solution and a single subsequent wash with PBS. The cells were plated at densities of 15000 cells per coverslip and were used for up to three days after plating, while the cell density was still low. All measurements were done in a Ringer solution containing (in mM) 135 NaCl, 5.4 KCl, 1.0 MgCl2, 1.8 CaCl2 and 5.0 Hepes, adjusted to pH 7.2 with NaOH.
# ANNINE-6 (FIG. 19a) was dissolved in a solution of 20% Pluronic F-127 DMSO (P-3000, Molecular Probes, Eugene, Oreg.) at a concentration of 0.5 mg/ml and sonicated for 15 min. The glass coverslip with the HEK293 cells was taken out of the culture well, exposed to the staining solution (dye stock solution diluted 1:100 into Ringer) for 5 min and finally washed with pure Ringer solution.
# To change the voltage across the cell membrane we applied an extracellular electric field. This method (Gross et al., 1986) has a somewhat reduced voltage calibration accuracy but is much simpler than whole-cell recordings, for example, permitting the transfer of the recording chamber between microscope setups thereby allowing the exploration of a wider parameter range. Our custom-made chamber (FIG. 19b) consists of a 2.6 mm wide, and 30 mm long slit in a 0.5 mm thick PMMA (Plexiglas) plate. Two chlorided silver wires (diameter 0.127 mm, Cat. No. 7860, A-M Systems, INC., Everett, Wash.) for the application of the electrical field were fixed to the long edges of the channel with two-component epoxy resin glue (plus sofortfest, UHU, Bühl, Germany). This chamber was sealed on the bottom with a clean coverslip (24 mm×50 mm) attached with silicone grease (Bayer-silicone, Bayer AG, Leverkusen, Germany). The coverslip with the stained HEK293 cells was dried around the edges to get a watertight seal with silicone grease and then mounted cells down on the top side of the chamber. Two openings allowed the continuous perfusion (about 2 ml/min) with physiological saline using a gravity-fed perfusion system.
# The voltage stimuli were generated by an arbitrary waveform generator (model 395, wavetek, Ismaning, Germany) and amplified by a custom-built push-pull circuit (using two operational amplifiers, OPA547, Texas Instruments Inc., Texas, USA, FIG. 19c). To avoid electrolysis at the electrodes and ionophoresis of cell-surface components all applied voltage waveforms were purely AC. Short pulses were used to minimize heating (FIG. 19d). The application of the pulse protocol was synchronized to the start of line scan acquisition.
# For one-photon excitation we used laser scanning microscopes (Zeiss LSM 510 NLO and Leica TCS SP2) with Ar-ion laser excitation (458 nm, 488 nm, or 514 nm). We used laser illumination instead of, for example, Xe arc-lamps because narrow spectral width and high intensities are needed to obtain sufficient excitation of the dye at the spectral edge. The excitation light at the Zeiss microscope was coupled in via the main dichroic beam splitters (HFT 458/514, reflecting the 458 nm and 514 nm laser lines or HFT KP 700/488, a combined 700 nm short pass and 488 nm reflector). The emitted light was filtered by a long-pass filter (LP560). The Leica microscope uses an acousto-optical main beam splitter and fluorescence was collected in the range of 520 nm to 800 nm. The maximal excitation intensities at the sample were for the Zeiss (Leica) microscope: 1.3 mW (1.5 mW) at 514 nm, 200 μW (250 μW) at 488 nm and 28 μW (35 μW) at 458 nm. The pinhole was completely opened up (8.5 airy units) to collect as much light as possible. […]
# HEK293 cells [3] = test: Tight-seal whole-cell voltage-clamp recordings of HEK293 cells, sensitivity at 514 nm; format: cell-based; conditions: four cells, voltage jumps +/−25, +/−50, +/−75 mV
# Description: Whole-cell tight-seal voltage-clamp recordings on HEK293 cells were preformed using pipettes with a resistance of around 6 MOhm and an epc9 amplifier (HEKA, Göttingen, Germany).
# To test our assumption about the extracellular stimulation the sensitivity at 514 nm was tested by controlling the membrane voltage directly using tight-seal whole-cell recordings of HEK293 cells (FIG. 22). The mean sensitivity measured in four cells using voltage jumps of +/−25, +/−50 and +/−75 mV is −0.37±0.02%/mV, in agreement with the results achieved by the external electric field method.
# HEK293 cells [4] = test: Example 4: HEK293 cells stained by bath application, alternating external electric fields, 1 kHz line scans; format: cell-based
# Excerpt: ANNINE-6 is a new, completely anellated hemicyanine dye. […] Several biological preparations were used for testing. First, HEK293 cells were stained by bath application of the dye. Alternating external electric fields generated by applying voltages between two Ag/AgCl-wires in a closed chamber (1). To achieve the high light intensities, which are necessary to excite the dye at the very red edge of the excitation spectrum, we used laser scanning microscopes with Ar-Ion Laser for one-photon excitation (488 nm, 514 nm) and Ti:Sapphire Laser for two-photon excitation (976 nm). The fluorescence changes measured with 1 kHz line scans followed the applied voltage, which was alternated every 10 ms, without discernible delay. We found relative fluorescence increases of more that 60%/100 mV for hyperpolarizing membrane potential changes and decreases of more than 40%/100 mV for depolarizing membrane potential changes at 514 nm excitation wavelength. The asymmetry of the fluorescence change is expected given the spectral shape and a pure electrochromic spectral shift. We found changes of +40%/100 mV and −30%/100 mV both for one-photon excitation at 488 nm and two-photon excitation at 976 nm. Preliminary measurements from cultured hippocampal slices using a soluble variant of ANNINE-6 show fast fluorescence changes of up to 8% upon stimulation of the Schaffer collaterals in CA1. • (1) D. Gross, L. M. Loew and W. Webb. Biophys. J., 50: 339-348, 1986.
# [5] = Maximal theoretical sensitivity for excitation in the Boltzmann tail; conditions: from shift of 1.6 cm^−1/mV
# Excerpt: A common approximation used for spectral shapes is the log-normal function (Siano and Metzler, 1969), which would imply an ever increasing, in fact, diverging sensitivity toward longer wavelengths and the vanishing of excitation above a wavelength of 591 nm. However, simple considerations predict a tail in the absorption spectrum F that follows a Boltzmann distribution (Hinshelwood, 1940)
# because an electronic transition between the ground and the excited state with the energy difference h ν00c (h Planck constant, ν00 wavenumber of the 00 transition, c light velocity) and an excitation energy h νc ( ν wavenumber of excitation), which is assumed to be below h ν00c, requires additional vibrational energy E=h ν00c−h νc to reach the lowest excited state, in analogy to anti-Stokes lines in scattering theory. […]
# for excitation in the Boltzmann tail (Δμ is the intramolecular charge displacement upon electronic excitation, d is the membrane thickness, θ is the angle between charge displacement and membrane normal). […] For comparison: the highest measured sensitivity value was −0.52±0.05%/mV (with 2-photon excitation at 1040 nm, corresponding to 520 nm). […]
smiles,measurement,setting,value
CCCCN(CCCC)c1ccc2c(ccc3c2ccc2c4cc[n+](CCCCS(=O)(=O)[O-])cc4ccc23)c1 [ANNINE-5],shift of the excitation spectrum per membrane voltage,[1],1.3 cm^−1/mV
CCCCN(CCCC)c1ccc2c(ccc3c2ccc2c4ccc5c[n+](CCCCS(=O)(=O)[O-])ccc5c4ccc32)c1 [ANNINE-6],fluorescence change for large voltage swing,"HEK293 cells [2]; 100 mV depolarization, 514 nm",−28%
same,fluorescence change for large voltage swing,"HEK293 cells [2]; 100 mV depolarization, 1040 nm",−40%
same,fluorescence change for large voltage swing,"HEK293 cells [2]; 100 mV hyperpolarization, 514 nm",50%
same,fluorescence change for large voltage swing,"HEK293 cells [2]; 100 mV hyperpolarization, 1040 nm",70%
same,sensitivity,"HEK293 cells [2]; 515 nm, 1-photon, dye incorporated inside the cells (as expected)",0.37 %/mV
same,sensitivity,"HEK293 cells [2]; 515 nm, 2-photon, dye incorporated inside the cells (as expected)",0.52 %/mV
same,2PE sensitivity higher than 1PE sensitivity at half the wavelength,"HEK293 cells [2]; 976 nm versus 488 nm, same cell",about 20%
same,sensitivity at end of repeated line scans,HEK293 cells [2]; after 900 line scans at 1040 nm over a period of over 2 h,−0.58±0.02 %/mV
same,"slope sensitivity at the resting potential, single cell","HEK293 cells [2]; cell of FIG. 21a, one-photon 458 nm",−0.16 %/mV
same,"slope sensitivity at the resting potential, single cell","HEK293 cells [2]; cell of FIG. 21a, one-photon 488 nm",−0.26 %/mV
same,"slope sensitivity at the resting potential, single cell","HEK293 cells [2]; cell of FIG. 21a, one-photon 514 nm",−0.37 %/mV
same,"slope sensitivity at the resting potential, single cell","HEK293 cells [2]; cell of FIG. 23, two-photon 960 nm",−0.35 %/mV
same,"slope sensitivity at the resting potential, single cell","HEK293 cells [2]; cell of FIG. 23, two-photon 980 nm",−0.41 %/mV
same,"slope sensitivity at the resting potential, single cell","HEK293 cells [2]; cell of FIG. 23, two-photon 1000 nm",−0.49 %/mV
same,"slope sensitivity at the resting potential, single cell","HEK293 cells [2]; cell of FIG. 23, two-photon 1020 nm",−0.54 %/mV
same,"slope sensitivity at the resting potential, single cell","HEK293 cells [2]; cell of FIG. 23, two-photon 1040 nm",−0.59 %/mV
same,sensitivity,"HEK293 cells [2]; excitation wavelength 515 nm, 1-photon, dye at the outer side of the membrane",−0.37 %/mV
same,small-signal fractional fluorescence change (mean sensitivity),"HEK293 cells [2]; one-photon excitation 488 nm, four cells",−0.28 %/mV and −0.28±0.03 %/mV
same,small-signal fractional fluorescence change (mean sensitivity),"HEK293 cells [2]; one-photon excitation 514 nm, four cells",−0.35 %/mV and −0.35±0.03 %/mV
same,sensitivity at begin of repeated line scans,"HEK293 cells [2]; single cell, excitation at 1040 nm",−0.59±0.01 %/mV
same,small-signal fractional fluorescence change (mean sensitivity),"HEK293 cells [2]; two-photon excitation 960 nm, 4 cells",−0.29 %/mV and −0.29±0.05 %/mV
same,mean sensitivity,"HEK293 cells [2]; two-photon excitation 980 nm, 4 cells",−0.35±0.05 %/mV
same,small-signal fractional fluorescence change (mean sensitivity),"HEK293 cells [2]; two-photon excitation 1000 nm, 4 cells",−0.43 %/mV and −0.43±0.05 %/mV
same,mean sensitivity,"HEK293 cells [2]; two-photon excitation 1020 nm, 4 cells",−0.47±0.06 %/mV
same,small-signal fractional fluorescence change (mean sensitivity),"HEK293 cells [2]; two-photon excitation 1040 nm, 4 cells",−0.52 %/mV and −0.52±0.06 %/mV and −0.52±0.05 %/mV
same,mean sensitivity with direct control of membrane voltage,HEK293 cells [3],−0.37±0.02 %/mV
same,relative fluorescence decrease,"HEK293 cells [4]; depolarizing membrane potential changes, 514 nm",more than 40 %/100 mV
same,relative fluorescence increase,"HEK293 cells [4]; hyperpolarizing membrane potential changes, 514 nm",> 60 %/100 mV
same,"relative fluorescence change, negative",HEK293 cells [4]; one-photon excitation 488 nm,−30 %/100 mV
same,"relative fluorescence change, positive",HEK293 cells [4]; one-photon excitation 488 nm,+40 %/100 mV
same,"relative fluorescence change, negative",HEK293 cells [4]; two-photon excitation 976 nm,−30 %/100 mV
same,"relative fluorescence change, positive",HEK293 cells [4]; two-photon excitation 976 nm,+40 %/100 mV
same,Boltzmann-tail sensitivity (theoretical limit),[5],−0.77 %/mV
same,sensitivity in Leech,"[1]; 488 nm, published (Kuhn and Fromherz, 2003)",−0.29 %/mV
same,shift of the excitation spectrum per membrane voltage,[1],1.6 cm^−1/mV
"CCCCCN(CCCCC)c1ccc(/C=C/C=C/c2cc[n+](CCCCS(=O)(=O)[O-])cc2)cc1 [RH-421, reference compound]",shift of the excitation spectrum per membrane voltage,[1],0.5 cm^−1/mV
"CCCCN(CCCC)c1ccc2cc(C=Cc3cc[n+](CCCCS(=O)(=O)[O-])cc3)ccc2c1 [di-4-ANEPBS, reference compound]",shift of the excitation spectrum per membrane voltage,[1],0.9 cm^−1/mV
